Experiments:
H22 [1] = assay: Antitumor activity against […] H22 cells […] in ICR mouse assessed as tumor growth inhibition at 30 mg/kg, ip administered 7 days post inoculation measured at day 25 of tumor transplantation; assay type: functional; conditions: route intraperitoneal
B16 [2] = assay: Antitumor activity against mouse B16 cells allografted in ICR mouse assessed as tumor growth inhibition at 30 mg/kg, ip administered 7 days post inoculation measured at day 25 of tumor transplantation; assay type: functional; conditions: route intraperitoneal
B16 [3] = assay: Antiproliferative activity against mouse B16 cells after 72 hrs by MTT assay; assay type: functional, cell-based; conditions: B16, 72 h
HeLa = assay: Antiproliferative activity against human HeLa cells after 72 hrs by MTT assay; assay type: functional, cell-based
[4] = Antiproliferative activity against human SF763 cells after 72 hrs by MTT assay; assay type: functional, cell-based; conditions: SF763, 72 h
[5] = Antiproliferative activity against human HL60 cells after 72 hrs by MTT assay; assay type: functional, cell-based; conditions: HL-60, 72 h
[6] = Antiproliferative activity against human Bel7402 cells after 72 hrs by MTT assay; assay type: functional, cell-based; conditions: Bel-7402, 72 h
H22 [7] = assay: Antitumor activity against human H22 cells xenografted in ICR mouse assessed as tumor growth inhibition at 30 mg/kg, iv administered 7 days post inoculation measured at day 25 of tumor transplantation; conditions: read-out: INH
B16 [8] = assay: Antitumor activity against mouse B16 cells allografted in ICR mouse assessed as tumor growth inhibition at 30 mg/kg, iv administered 7 days post inoculation measured at day 25 of tumor transplantation; assay type: functional

Row | Compound | inhibition in vivo at 30 mg/kg (H22 [1]) [%] | inhibition in vivo at 30 mg/kg (B16 [2]) [%] | IC50 (B16 [3]) [µM] | IC50 (HeLa) [µM] | IC50 [4] [µM] | IC50 [5] [µM] | IC50 [6] [µM] | inhibition in vivo at 30 mg/kg (H22 [7]) [%] | inhibition in vivo at 30 mg/kg (B16 [8]) [%]
1 | C=C(C)[C@@H]1CC[C@]2(C(=O)O)CC[C@]3(C)[C@H](CC[C@@H]4[C@@]5(C)CC[C@H](O)[C@@](C)(CO)[C@@H]5CC[C@]43C)[C@@H]12 | 27.8 | 32.4 |  |  |  |  |  |  | 
2 | C=C(C)[C@@H]1CC[C@]2(C(=O)N3CCOCC3)CC[C@]3(C)[C@H](CC[C@@H]4[C@@]5(C)Cc6c[nH]nc6[C@@](C)(COC(C)=O)[C@@H]5CC[C@]43C)[C@@H]12 |  |  | 7.89 | 10 | 8.45 | 9.85 | 10.2 |  | 
3 | C=C(C)[C@@H]1CC[C@]2(C(=O)NCC(=O)OC)CC[C@]3(C)[C@H](CC[C@@H]4[C@@]5(C)Cc6c[nH]nc6[C@@](C)(COC(C)=O)[C@@H]5CC[C@]43C)[C@@H]12 |  |  | 18.9 | 21.2 | 17.7 | 20.9 | 19.3 |  | 
4 | C=C(C)[C@@H]1CC[C@]2(C(=O)OCCO)CC[C@]3(C)[C@H](CC[C@@H]4[C@@]5(C)Cc6cn(C(C)=O)nc6[C@@](C)(COC(C)=O)[C@@H]5CC[C@]43C)[C@@H]12 |  |  | 33.8 | 40.1 | 32.1 | 43.2 | 34.4 |  | 
5 | C=C(C)[C@@H]1CC[C@]2(C(=O)Oc3ccc(C#N)cc3)CC[C@]3(C)[C@H](CC[C@@H]4[C@@]5(C)Cc6cn(C(C)=O)nc6[C@@](C)(COC(C)=O)[C@@H]5CC[C@]43C)[C@@H]12 |  |  | 22.5 | 28 | 23.4 | 31.3 | 18.1 |  | 
6 | C=C(C)[C@@H]1CC[C@]2(C(=O)NCCN)CC[C@]3(C)[C@H](CC[C@@H]4[C@@]5(C)Cc6c[nH]nc6[C@@](C)(COC(C)=O)[C@@H]5CC[C@]43C)[C@@H]12 | 51.2 | 58.9 | 5.58 | 8.97 | 6.13 | 8.04 | 8.12 |  | 
7 | C=C(C)[C@@H]1CC[C@]2(C(=O)N3CCOCC3)CC[C@]3(C)[C@H](CC[C@@H]4[C@@]5(C)Cc6c[nH]nc6[C@@](C)(CO)[C@@H]5CC[C@]43C)[C@@H]12 |  |  | 31.1 | 35.5 | 33.7 | 39 | 39.4 |  | 
8 | C=C(C)[C@@H]1CC[C@]2(C(=O)NCC(=O)O)CC[C@]3(C)[C@H](CC[C@@H]4[C@@]5(C)Cc6c[nH]nc6[C@@](C)(CO)[C@@H]5CC[C@]43C)[C@@H]12 |  |  | 30.8 | 32.7 | 27.4 | 34.9 | 36.1 |  | 
9 | C=C(C)[C@@H]1CC[C@]2(C(=O)OCc3ccccc3)CC[C@]3(C)[C@H](CC[C@@H]4[C@@]5(C)Cc6cn(CC)nc6[C@@](C)(CO)[C@@H]5CC[C@]43C)[C@@H]12 |  |  | 38.2 | 40 | 39.6 | 40.1 | 45.8 |  | 
10 | C=CCn1cc2c(n1)[C@@](C)(CO)[C@@H]1CC[C@]3(C)[C@H](CC[C@@H]4[C@H]5[C@H](C(=C)C)CC[C@]5(C(=O)OCc5ccccc5)CC[C@]43C)[C@@]1(C)C2 |  |  | 20.1 | 26.4 | 21.1 | 31.1 | 29.6 |  | 
11 | C=C(C)[C@@H]1CC[C@]2(C(=O)OCc3ccccc3)CC[C@]3(C)[C@H](CC[C@@H]4[C@@]5(C)Cc6cn(CC(=O)OCC)nc6[C@@](C)(CO)[C@@H]5CC[C@]43C)[C@@H]12 |  |  | 32.9 | 37 | 33 | 39.1 | 43 |  | 
12 | C=C(C)[C@@H]1CC[C@]2(C(=O)O)CC[C@]3(C)[C@H](CC[C@@H]4[C@@]5(C)Cc6cn(CC)nc6[C@@](C)(CO)[C@@H]5CC[C@]43C)[C@@H]12 |  |  | 42.4 | 58.8 | 44.1 | 47 | 50.3 |  | 
13 | C=C(C)[C@@H]1CC[C@]2(C(=O)O)CC[C@]3(C)[C@H](CC[C@@H]4[C@@]5(C)Cc6cn(CCC)nc6[C@@](C)(CO)[C@@H]5CC[C@]43C)[C@@H]12 |  |  | 44.3 | 54.1 | 41 | 45.8 | 48 |  | 
14 | C=C(C)[C@@H]1CC[C@]2(C(=O)O)CC[C@]3(C)[C@H](CC[C@@H]4[C@@]5(C)Cc6cn(CC(=O)OCC)nc6[C@@](C)(CO)[C@@H]5CC[C@]43C)[C@@H]12 |  |  | 29.4 | 47.2 | 35.9 | 49.8 | 40.6 |  | 
15 | C=C(C)[C@@H]1CC[C@]2(C(=O)O)CC[C@]3(C)[C@H](CC[C@@H]4[C@@]5(C)Cc6cn(CC(=O)O)nc6[C@@](C)(CO)[C@@H]5CC[C@]43C)[C@@H]12 |  |  | 39.7 | 59.9 | 30.2 | 46.3 | 50.2 |  | 
16 | C=C(C)[C@@H]1CC[C@]2(C(=O)OCC)CC[C@]3(C)[C@H](CC[C@@H]4[C@@]5(C)Cc6cn(CC)nc6[C@@](C)(COC(C)=O)[C@@H]5CC[C@]43C)[C@@H]12 |  |  | 19.4 | 24.2 | 19.4 | 28.1 | 30.2 |  | 
17 | C=CCOC(=O)[C@]12CC[C@@H](C(=C)C)[C@@H]1[C@H]1CC[C@@H]3[C@@]4(C)Cc5cn(CC=C)nc5[C@@](C)(COC(C)=O)[C@@H]4CC[C@@]3(C)[C@]1(C)CC2 |  |  | 20.1 | 27.3 | 22 | 30.8 | 33.5 |  | 
18 | C=C(C)[C@@H]1CC[C@]2(C(=O)OCC(=O)OCC)CC[C@]3(C)[C@H](CC[C@@H]4[C@@]5(C)Cc6cn(CC(=O)OCC)nc6[C@@](C)(COC(C)=O)[C@@H]5CC[C@]43C)[C@@H]12 |  |  | 29.3 | 38.2 | 34 | 35.1 | 39.2 |  | 
19 | C=CCOC(=O)[C@]12CC[C@@H](C(=C)C)[C@@H]1[C@H]1CC[C@@H]3[C@@]4(C)Cc5cn(CC=C)nc5[C@@](C)(CO)[C@@H]4CC[C@@]3(C)[C@]1(C)CC2 |  |  | 24.9 | 32.1 | 25.3 | 33.4 | 38.8 |  | 
20 | C=C(C)[C@@H]1CC[C@]2(C(=O)OCC(=O)O)CC[C@]3(C)[C@H](CC[C@@H]4[C@@]5(C)Cc6cn(CC(=O)O)nc6[C@@](C)(CO)[C@@H]5CC[C@]43C)[C@@H]12 |  |  | 36 | 50 | 41.8 | 44.8 | 47.6 |  | 
21 | O=P1(N(CCCl)CCCl)NCCCO1 (stereo unspecified) [CYCLOPHOSPHAMIDE ANHYDROUS] |  |  |  |  |  |  |  | 53.7 | 
22 | O=c1[nH]cc(F)c(=O)[nH]1 [FLUOROURACIL] |  |  | 10.5 | 9.09 | 9.34 | 10.5 | 11.8 |  | 70.3
